ChEMBL document CHEMBL4251694 (ACS Med Chem Lett, 2018)
Calls of active or inactive are those of the source. The calls are words filed in the database; no cut-off is given here.

Columns and labels:
[1] = Cytotoxicity against MDCK cells after 72 hrs by crystal violet staining based spectrophotometric method; format: cell-based, Canis lupus familiaris; details: dog
Influenza A virus [2] = assay: Antiviral activity against Influenza A virus A/Udorn/72 H3N2 infected in MDCK cells assessed as reduction in virus-induced cytopathic effect by crystal violet staining based light-microscopic analysis; format: functional, organism-based, Influenza A virus (A/udorn/1972(H3N2))
Influenza A virus [3] = assay: Antiviral activity against Influenza A virus A/Udorn/72 H3N2 infected in MDCK cells assessed as reduction in plaque formation by crystal violet staining based assay; format: functional, organism-based; details: Influenza A virus (A/udorn/1972(H3N2))
Influenza A virus [4] = assay: Antiviral activity against Influenza A virus A/WSN/33 H1N1 infected in MDCK cells assessed as reduction in virus-induced cytopathic effect by crystal violet staining based light-microscopic analysis; format: functional, organism-based; details: A/WSN/1933(H1N1)
Influenza A virus [5] = assay: Antiviral activity against Influenza A virus A/Udorn/72 H3N2 infected in MDCK cells assessed as reduction in plaque size by crystal violet staining based assay; format: functional, organism-based; details: Influenza A virus (A/udorn/1972(H3N2))
[6] = molecular target: Matrix protein 2 (Influenza A virus (A/Udorn/307/1972(H3N2)), UniProt P0DOF8); assay: Binding affinity to Influenza A virus A/Udorn/72 wild-type M2 proton channel expressed in Xenopus laevis oocytes at pH 5.5 by two-electrode voltage clamp assay; format: cell-based, Influenza A virus (A/udorn/1972(H3N2))
Influenza A virus [7] = assay: Antiviral activity against Influenza A virus (A/Hong Kong/68(H3N2)) infected in MDCK cells assessed as reduction in virus-induced cytopathic effect by crystal violet staining based light-microscopic analysis; format: functional, organism-based
[8] = molecular target: Matrix protein 2 (Influenza A virus (A/Udorn/307/1972(H3N2)), UniProt P0DOF8); assay: Binding affinity to Influenza A virus A/Udorn/72 wild-type M2 proton channel by isothermal calorimetric titration; design: species or system Influenza A virus (A/udorn/1972(H3N2))
[9] = molecular target: Matrix protein 2 (Influenza A virus (A/Udorn/307/1972(H3N2)), UniProt P0DOF8); assay: Inhibition of Influenza A virus A/Udorn/72 wild-type M2 proton channel expressed in Xenopus laevis oocytes assessed as blockade of inward currents at pH 5.5 after 5 mins by two-electrode voltage clamp assay; format: cell-based, Influenza A virus (A/udorn/1972(H3N2))
[10] = molecular target: Matrix protein 2 (Influenza A virus (A/Udorn/307/1972(H3N2)), UniProt P0DOF8); assay: Inhibition of Influenza A virus A/Udorn/72 wild-type M2 proton channel expressed in Xenopus laevis oocytes assessed as blockade of inward currents at pH 5.5 after 2 mins by two-electrode voltage clamp assay; format: cell-based, Influenza A virus (A/udorn/1972(H3N2))

Sequence of Matrix protein 2 (Influenza A virus (A/Udorn/307/1972(H3N2)), UniProt P0DOF8) (P0DOF8 whole entry): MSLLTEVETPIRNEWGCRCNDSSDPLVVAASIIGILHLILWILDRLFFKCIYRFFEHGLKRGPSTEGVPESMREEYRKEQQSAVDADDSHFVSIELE

Row | SMILES | CC50 at 72 h [1] [µM] | EC50 (Influenza A virus [2]) [µM] | Activity (Influenza A virus [3]) | EC50 (Influenza A virus [4]) [µM] | Activity (Influenza A virus [5]) | Kd [6] [µM] | EC50 (Influenza A virus [7]) [µM] | Kd [8] [µM] | IC50 [9] [µM] | IC50 [10] [µM]
1 | C[C@H](N)C12CC3CC(CC(C3)C1)C2 | > 100 | 0.06 | Active | > 100 |  |  |  |  |  | 
2 | CCCC(N)(CCC)C12CC3CC(CC(C3)C1)C2 | 57.3 | 1.07 | inactive | > 100 | Active | 88 | 0.45 | 3.43 |  | 
3 | C[C@@H](N)C12CC3CC(CC(C3)C1)C2 | > 100 | 0.05 | Active | > 100 |  |  |  |  |  | 
4 | CC(N)C12CC3CC(CC(C3)C1)C2 (stereo unspecified) [RIMANTADINE] | > 100 | 0.09 | Active | > 100 |  |  | 0.05 |  |  | 
5 | CCC(N)(CC)C12CC3CC(CC(C3)C1)C2 | > 100 | 0.41 | Active | > 100 |  |  | 0.46 | 4.59 | 13.2 | 24.3
6 | CCOC(=O)C1=C[C@@H](OC(CC)CC)[C@H](NC(C)=O)[C@@H](N)C1 [OSELTAMIVIR] | > 100 | 0.001 |  | 0.03 |  |  | 0.002 |  |  | 
7 | CC(C)(N)C12CC3CC(CC(C3)C1)C2 | > 100 | 0.01 | Active | > 100 |  | 13 | 0.012 | 0.13 | 4 | 9.3
8 | NC12CC3CC(CC(C3)C1)C2 [AMANTADINE] | > 100 | 0.78 | Active | > 100 |  |  |  |  |  | 
